Reference: ChEMBL document CHEMBL4396877, “Design and Synthesis of TASIN Analogues Specifically Targeting Colorectal Cancer Cell Lines with Mutant Adenomatous Polyposis Coli (APC)” (J Med Chem, 2019)

Experiments:
[1] = Cmax in CD-1 mouse large intestine at 5 mg/kg, iv after 10 to 1440 mins by LC/MS analysis; format: ADME, organism-based; design: dose 5 mg/kg, route intravenous
[2] = AUClast in CD-1 mouse Large intestine at 20 mg/kg, po after 10 to 1440 mins by LC/MS analysis; format: ADME, organism-based; conditions: in vivo
[3] = Tmax in CD-1 mouse large intestine at 5 mg/kg, iv after 10 to 1440 mins by LC/MS analysis; format: ADME, organism-based
[4] = AUClast in CD-1 mouse Large intestine at 10 mg/kg, ip after 10 to 1440 mins by LC/MS analysis; format: ADME, organism-based; conditions: in vivo
[5] = AUClast in CD-1 mouse Large intestine at 5 mg/kg, iv after 10 to 1440 mins by LC/MS analysis; format: ADME, organism-based; conditions: in vivo
[6] = Cmax in CD-1 mouse large intestine at 10 mg/kg, ip after 10 to 1440 mins by LC/MS analysis; format: ADME, organism-based; design: dose 10 mg/kg, route intraperitoneal
[7] = Cmax in CD-1 mouse large intestine at 20 mg/kg, po after 10 to 1440 mins by LC/MS analysis; format: ADME, organism-based; design: dose 20 mg/kg, route oral
[8] = Ratio of drug level in lung to plasma of CD-1 mouse at 5 mg/kg, iv; format: ADME, organism-based
[9] = Tmax in CD-1 mouse large intestine at 10 mg/kg, ip after 10 to 1440 mins by LC/MS analysis; format: ADME, organism-based
[10] = Volume of distribution in CD-1 mouse by LC-MS/MS analysis; format: ADME; conditions: in vivo
[11] = Tmax in CD-1 mouse large intestine at 20 mg/kg, po after 10 to 1440 mins by LC/MS analysis; format: ADME, organism-based
[12] = AUClast in CD-1 mouse Large intestine at 10 mg/kg, iv after 10 to 1440 mins by LC/MS analysis; format: ADME, organism-based; conditions: in vivo
[13] = Cmax in CD-1 mouse large intestine at 10 mg/kg, iv after 10 to 1440 mins by LC/MS analysis; format: ADME, organism-based; design: dose 10 mg/kg, route intravenous
[14] = Tmax in CD-1 mouse large intestine at 10 mg/kg, iv after 10 to 1440 mins by LC/MS analysis; format: ADME, organism-based

Structure (SMILES) | Cmax [1] [ng/g] | AUClast [2] [ng·min/g] | Tmax [3] [min] | AUClast [4] [ng·min/g] | AUClast [5] [ng·min/g] | Cmax [6] [ng/g] | Cmax [7] [ng/g] | Kp [8] | Tmax [9] [min] | Vd [10] [L/kg] | Tmax [11] [min] | AUClast [12] [ng·min/g] | Cmax [13] [ng/g] | Tmax [14] [min]
CC1CCN(C2CCN(S(=O)(=O)c3ccc(OC(F)F)cc3)CC2)CC1 | 1820 | 890969 | 10 | 790425 | 511878 | 10100 | 3250 | 5.7 | 10 | 5.87 to 63 | 10 |  |  | 
CC1CCN(C2CCN(S(=O)(=O)c3ccc(Cl)cc3)CC2)CC1 |  |  |  |  |  |  |  |  |  | 5.87 to 63 |  | 262874 | 1410 | 
C#CCC1CCN(C2CCN(S(=O)(=O)c3ccc(Br)cc3)CC2)CC1 |  |  |  | 633289 |  | 5750 |  |  | 10 | 5.87 to 63 |  | 559037 | 2970 | 10
COc1ccc(S(=O)(=O)N2CCC(N3CCC(C)CC3)CC2)cc1 |  |  |  | 737709 |  | 10700 |  |  | 10 |  |  |  |  | 
